From US12187706B2, “NLRP3 modulators” (INNATE TUMOR IMMUNITY, INC., priority 2019, dated 2025)

Molecular target: T1, NLRP3 (Homo sapiens, UniProt Q96P20)
T1 construct: host or cells: PMA-differentiated THP-1 cells
Test: Measurement of IL-1β production in PMA-differentiated THP-1 cells (NLRP3 hIL1B)
Assay type: cell-based
Experimental: Measurement of IL-1β Production in PMA-Differentiated THP-1 Cells
THP-1 cells were purchased from the American Type Culture Collection and sub-cultured according to instructions from the supplier. Prior to experiments, cells were cultured in RPMI 1640 containing 10% heat inactivated FBS, penicillin (100 units/ml) and streptomycin (100 μg/ml), and maintained in log phase prior to experimental setup. Prior to the experiment THP-1 were treated with PMA (Phorbol 12-myristate 13-acetate) (10 μg/ml) for 24 hours. The day of the experiment the media was removed and attaching cells were treated with trypsin for 2 minutes, cells were then collected, washed with PBS (phosphate buffer saline), spin down, resuspended in 2% heat inactivated FBS with RPMI at a concentration of 1×10^6 cells/ml, and 100 μl was plated in a 96 well plate. Compounds were dissolved in dimethyl sulfoxide (DMSO) and added to the culture medium to achieve desired concentration (e.g. 100, 30, 10, 3, 1, 0.3 or 0.1 μM). Cells were incubated with compounds for 4 hours. Cell free supernatant was collected and the production of IL-1β was evaluated by ELISA. A vehicle only control was run concurrently with each experiment. Final DMSO concentration was 1%.
Measurement of IL-1β Production in PMA-Differentiated THP-1 Cells (Alternative Procedure)
THP-1 cells were purchased from the American Type Culture Collection and sub-cultured according to instructions from the supplier. Prior to experiments, cells were cultured in RPMI 1640 containing 10% heat inactivated FBS, penicillin (100 units/ml), streptomycin (100 μg/ml), HEPES (10 mM) and sodium pyruvate (1 mM) and maintained in log phase prior to experimental setup. Prior to the experiment, THP-1 cells were treated with PMA (Phorbol 12-myristate 13-acetate) (20 μg/ml) overnight. The day of the experiment, the media was removed and attached cells were treated with trypsin for 2 minutes, cells were then collected, washed with PBS (phosphate buffer saline), pelleted by centrifugation and resuspended in 2% heat inactivated FBS with RPMI at a concentration of 50,000 cells/well in a 384 well plate. Cell free supernatant was collected and the production of IL-1β was evaluated by ELISA. Compounds were dissolved in dimethyl sulfoxide (DMSO) and added to the culture medium to achieve desired concentration (e.g. 100, 30, 10, 3, 1, 0.3 or 0.1 μM). Cells were incubated with compounds for 2 hours. A vehicle only control was run concurrently with each experiment. Final DMSO concentration was 1%.
Measurement of IL-1β Production—hTRF Protocol (Second Alternative Procedure)
Serial dilutions of compounds in DMSO were added to low volume 384 well plates at 100 nl/well using an ECHO 550 acoustic dispenser (Labcyte) to achieve final starting concentration of 10 μM in assay.
THP-1 cells in RPMI (Gibco, 11875) media with 10% FBS at a density of 1×10^6 cell/ml in a T175 flask were treated with a final concentration of phorbol 12-myristate 13-acetate (PMA) (Sigma, P1585) of 50 ng/ml overnight at 37° C. at 5% CO2 for differentiation. Cells were harvested the next day after rinsing well with dPBS using 0.5% trypsin. A cell solution was prepared of 1×10^6 cells/ml for 50,000 cells in 50 μl/well in RPMI media with 2% FBS. Cells were plated using a multichannel pipette onto the compound dilutions in Greiner, 384 well, black clear bottom tissue culture treated plates (781090). The plates were incubated in 37° C. incubator at 5% CO2 for 2 hours.
After the 2 hour incubation, the cell plates were spun in the centrifuge for 5 minutes at 1200 rpm. Using the Felix (CyBio), 8 μl of the supernatant was transferred to 384 well, low volume, white proxy plates. (Perkin Elmer, 6008230). A human IL1beta hTRF kit was used to analyze the supernatant (CISBIO, 62HIL1BPEG). The kit instructions were followed for preparing the IL1Beta standard curve and then the antibodies from the kit were diluted 1:40 rather than 1:20 as kit instructed.

T1 sequence (Q96P20 whole entry): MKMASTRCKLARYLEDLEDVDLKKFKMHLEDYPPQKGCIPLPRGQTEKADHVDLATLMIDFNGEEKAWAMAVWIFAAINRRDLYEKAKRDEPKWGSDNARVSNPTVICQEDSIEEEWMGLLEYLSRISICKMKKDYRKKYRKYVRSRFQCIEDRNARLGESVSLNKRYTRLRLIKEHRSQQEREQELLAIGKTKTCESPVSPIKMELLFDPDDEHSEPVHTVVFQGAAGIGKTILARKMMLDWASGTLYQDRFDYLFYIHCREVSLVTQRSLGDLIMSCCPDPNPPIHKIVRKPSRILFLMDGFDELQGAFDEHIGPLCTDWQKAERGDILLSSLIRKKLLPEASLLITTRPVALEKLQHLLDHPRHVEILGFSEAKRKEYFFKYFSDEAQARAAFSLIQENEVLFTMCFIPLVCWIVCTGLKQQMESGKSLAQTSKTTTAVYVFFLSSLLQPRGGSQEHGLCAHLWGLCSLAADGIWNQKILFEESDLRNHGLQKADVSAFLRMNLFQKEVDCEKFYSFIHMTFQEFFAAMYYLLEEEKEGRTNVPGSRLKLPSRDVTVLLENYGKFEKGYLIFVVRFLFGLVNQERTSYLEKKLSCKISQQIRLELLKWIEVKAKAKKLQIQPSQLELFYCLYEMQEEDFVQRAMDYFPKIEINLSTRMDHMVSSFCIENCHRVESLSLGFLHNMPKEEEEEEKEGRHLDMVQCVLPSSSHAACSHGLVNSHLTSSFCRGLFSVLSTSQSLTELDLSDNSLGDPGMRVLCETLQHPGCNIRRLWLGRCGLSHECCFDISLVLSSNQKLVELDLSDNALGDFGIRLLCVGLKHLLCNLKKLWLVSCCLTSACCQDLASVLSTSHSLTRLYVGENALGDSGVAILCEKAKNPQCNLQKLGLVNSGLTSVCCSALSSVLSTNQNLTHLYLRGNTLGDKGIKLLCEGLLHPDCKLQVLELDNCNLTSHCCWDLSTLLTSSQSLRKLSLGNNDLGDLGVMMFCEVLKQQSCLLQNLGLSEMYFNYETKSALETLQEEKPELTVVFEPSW

EC50 [nM] | Structure (SMILES)
650 | Nc1nc(N[C@@H]2C[C@H]2c2cccnc2)c2ccc(-c3ccn[nH]3)cc2n1 (single isomer, unassigned) [Example 163, 7-(1H-pyrazol-5-yl)-N4-((trans)-2-(pyridin-3-yl)cyclopropyl)quinazoline-2,4-diamine]
1750 | Nc1nc(N[C@H]2CC[C@@H](CO)C2)c2ccc(-c3ccn[nH]3)cc2n1 [Example 63]
1320 | Nc1nc(NCc2ncc[nH]2)c2ccc(-c3ccn[nH]3)cc2n1 [Example 39]
90 | Nc1nc(N[C@H]2C[C@H](CO)C2)c2ccc(-c3ccn[nH]3)cc2n1 [Example 176]
3650 | NC(=O)CC(Nc1nc(N)nc2cc(-c3ccn[nH]3)ccc12)c1cccnc1 (stereo not shown) [Example 82]
650 | COc1cccc(CNc2nc(N)nc3cc(-c4ccn[nH]4)ccc23)n1 [Example 160]
600 | Nc1nc(NCc2cc[nH]n2)c2c(F)cc(-c3cc[nH]n3)cc2n1 [Example 124]
8320 | COc1cnnc(CNc2nc(N)nc3cc(-c4ccn[nH]4)ccc23)c1 [Example 188]
660 | Nc1nc(N[C@H]2CCC[C@@H](O)C2)c2ccc(-c3ccn[nH]3)cc2n1 (single isomer, unassigned) [Example 178, (cis)-3-((2-amino-7-(1H-pyrazol-5-yl)quinazolin-4-yl)amino)cyclohexan-1-ol]
220 | Nc1nc(NCC(F)(F)CO)c2ccc(-c3ccn[nH]3)cc2n1 [Example 88]
4460 | Cn1ncnc1COc1nc(N)nc2cc(-c3ccn[nH]3)ccc12 [Example 7, 4-((1-methyl-1H-1,2,4-triazol-5-yl)methoxy)-7-(1H-pyrazol-5-yl)quinazolin-2-amine]
4010 | Nc1nc(N[C@H](CO)Cc2c[nH]cn2)c2ccc(-c3ccn[nH]3)cc2n1 [Example 54]
5390 | Nc1nc(NC(CO)c2cc[nH]n2)c2ccc(-c3ccn[nH]3)cc2n1 (stereo not shown) [Example 33]
700 | N#CCCNc1nc(N)nc2cc(-c3ccn[nH]3)ccc12 [Example 58]
130 | N#C[C@H]1CC[C@H](Nc2nc(N)nc3cc(-c4ccn[nH]4)ccc23)CC1 [Example 182]
400 | Nc1nc(Nc2ccccc2)c2ccc(-c3ccn[nH]3)cc2n1 [Example 111]
670 | C[C@]1(O)CC[C@@H](Nc2nc(N)nc3cc(-c4ccn[nH]4)ccc23)C1 (racemic) [Example 107]
70 | Nc1nc(NCC2CC2(F)F)c2ccc(-c3cc[nH]n3)cc2n1 (single isomer, unassigned) [Example 198, N4-((2,2-Difluorocyclopropyl)methyl)-7-(1H-pyrazol-3-yl)quinazoline-2,4-diamine]
1280 | CCn1cc(CNc2nc(N)nc3cc(-c4ccn[nH]4)ccc23)cn1 [Example 168]
710 | C[C@H](O)CNc1nc(N)nc2cc(-c3ccn[nH]3)ccc12 [Example 36]
710 | CC(C)(C)Nc1nc(N)nc2cc(-c3ccn[nH]3)ccc12 [Example 180]
2230 | Nc1nc(Nc2ccon2)c2ccc(-c3ccn[nH]3)cc2n1 [Example 113]
3920 | Nc1nc(N[C@H]2COC[C@@H](O)C2)c2ccc(-c3ccn[nH]3)cc2n1 (single isomer, unassigned) [Example 12]
1300 | CC(C)(CO)CCCNc1nc(N)nc2cc(-c3ccn[nH]3)ccc12 [Example 91]
210 | Nc1nc(NCC2(CN3CCCC3)CC2)c2ccc(-c3cc[nH]n3)cc2n1 [Example 194]
680 | Nc1nc(N2CCCOCC2)c2ccc(-c3cc[nH]n3)cc2n1 [Example 120]

EC50 [nM] | Structure (SMILES)
2860 | Nc1nc(N2CCCOCC2)c2c(F)cc(-c3cc[nH]n3)cc2n1 [Example 123]
220 | Nc1nc(Nc2cc[nH]n2)c2ccc(-c3ccn[nH]3)cc2n1 [Example 2, N4-(1H-pyrazol-3-yl)-7-(1H-pyrazol-5-yl)quinazoline-2,4-diamine]
860 | CC(CCO)Nc1nc(N)nc2cc(-c3ccn[nH]3)ccc12 (single isomer, unassigned) [Example 200, 3-((2-amino-7-(1H-pyrazol-5-yl)quinazolin-4-yl)amino)butan-1-ol]
950 | Nc1nc(N[C@H]2CCC[C@H](O)C2)c2c(F)cc(-c3cc[nH]n3)cc2n1 (racemic) [Example 17, trans-3-((2-amino-5-fluoro-7-(1H-pyrazol-3-yl)quinazolin-4-yl)amino)cyclohexan-1-ol]
180 | CC(C)(C)CNc1nc(N)nc2cc(-c3ccn[nH]3)ccc12 [Example 181]
370 | Nc1nc(Nc2cnoc2)c2ccc(-c3ccn[nH]3)cc2n1 [Example 114]
780 | Nc1nc(NC(CO)CO)c2ccc(-c3ccn[nH]3)cc2n1 [Example 74]
510 | Nc1nc(NCc2cccnn2)c2ccc(-c3ccn[nH]3)cc2n1 [Example 142]
170 | N#C[C@H]1CC[C@H](Nc2nc(N)nc3cc(-c4ccn[nH]4)ccc23)C1 (single isomer, unassigned) [Example 185, (trans)-3-((2-amino-7-(1H-pyrazol-5-yl)quinazolin-4-yl)amino)cyclopentane-1-carbonitrile]
880 | COC(CO)CNc1nc(N)nc2cc(-c3ccn[nH]3)ccc12 (single isomer, unassigned) [Example 202, 3-((2-amino-7-(1H-pyrazol-5-yl)quinazolin-4-yl)amino)-2-methoxypropan-1-ol]
5520 | Cn1cncc1CNc1nc(N)nc2cc(-c3ccn[nH]3)ccc12 [Example 75]
780 | Nc1nc(N[C@H]2CCC[C@@H](O)C2)c2c(F)cc(-c3cc[nH]n3)cc2n1 (racemic) [Example 16, cis-3-((2-amino-5-fluoro-7-(1H-pyrazol-3-yl)quinazolin-4-yl)amino)cyclohexan-1-ol]
800 | Nc1nc(NCCn2cncn2)c2ccc(-c3ccn[nH]3)cc2n1 [Example 31]
4890 | CCn1cc(CNc2nc(N)nc3cc(-c4ccn[nH]4)ccc23)nn1 [Example 190]
310 | Nc1nc(NCC2(O)CC2)c2ccc(-c3cc[nH]n3)cc2n1 [Example 197]
710 | Cc1cnc(CNc2nc(N)nc3cc(-c4ccn[nH]4)ccc23)cn1 [Example 80]
1590 | Nc1nc(N[C@H]2C[C@@H](O)C2)c2ccc(-c3ccn[nH]3)cc2n1 [Example 158]
650 | Nc1nc(NC[C@@H]2CCCC[C@@H]2O)c2ccc(-c3ccn[nH]3)cc2n1 (racemic) [Example 77]
870 | Nc1nc(NCC2(O)CCOCC2)c2ccc(-c3ccn[nH]3)cc2n1 [Example 37]
1630 | Nc1nc(NCc2cnc[nH]2)c2ccc(-c3ccn[nH]3)cc2n1 [Example 87]
650 | Nc1nc(NCCCO)c2c(Cl)cc(-c3cc[nH]n3)cc2n1 [Example 18, 3-((2-amino-5-chloro-7-(1H-pyrazol-3-yl)quinazolin-4-yl)amino)propan-1-ol]
18000 | Nc1nc(Nc2ccn(CCO)n2)c2ccc(-c3ccn[nH]3)cc2n1 [Example 115]
80 | Nc1nc(NCC2CC2(F)F)c2ccc(-c3cc[nH]n3)cc2n1 (single isomer, unassigned) [Example 199, N4-((2,2-Difluorocyclopropyl)methyl)-7-(1H-pyrazol-3-yl)quinazoline-2,4-diamine]
270 | Nc1nc(NCc2ccccn2)c2ccc(-c3ccn[nH]3)cc2n1 [Example 171]
800 | Nc1nc(NC[C@H](O)CO)c2ccc(-c3ccn[nH]3)cc2n1 [Example 70]
160 | Nc1nc(N[C@H]2C[C@H](O)C2)c2ccc(-c3ccn[nH]3)cc2n1 [Example 154]
